According to ChEMBL document CHEMBL1201862, “PubChem BioAssay data set” (2004):
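Five compound concentrations were applied to cells in 96-well plates for 48 hours; endpoints were derived by simple linear interpolation of the resulting dose-response curve. GI50: concentration for 50% inhibition of growth.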 The source made the active and inactive calls. Rule as the data show it: active = GI50 up to about 1.1 µM and inactive = higher.

What was measured:
Test in all cases: NCI tumour cell line growth inhibition, 48 h
CCRF-CEM = test system: CCRF-CEM
EKVX = test system: EKVX
HL-60 = test system: HL-60
K562 = test system: K562
MDA-MB-231 = test system: MDA-MB-231
NCI-H226 = test system: NCI-H226
NCI-H522 = test system: NCI-H522
OVCAR-5 = test system: OVCAR-5
SF-295 = test system: SF-295
SK-MEL-2 = test system: SK-MEL-2
SN12C = test system: SN12C
TK-10 = test system: TK-10
U-251 = test system: U-251
UO-31 = test system: UO-31
CAKI-1 = test system: CAKI-1
HOP-92 = test system: HOP-92
IGROV-1 = test system: IGROV-1
SK-MEL-28 = test system: SK-MEL-28
HOP-62 = test system: HOP-62

Structure (SMILES)	GI50 (CCRF-CEM)	GI50 (EKVX)	GI50 (HL-60)	GI50 (K562)	GI50 (MDA-MB-231)	GI50 (NCI-H226)	GI50 (NCI-H522)	GI50 (OVCAR-5)	GI50 (SF-295)	GI50 (SK-MEL-2)	GI50 (SN12C)	GI50 (TK-10)	GI50 (U-251)	GI50 (UO-31)	GI50 (CAKI-1)	GI50 (HOP-92)	GI50 (IGROV-1)	GI50 (SK-MEL-28)	GI50 (HOP-62)
O=C(O)c1cc(/C=C/c2cc(O)ccc2O)ccc1O	> 10 µM (inactive)	> 10 µM (inactive)	> 10 µM (inactive)	2.85 µM (inactive)	> 10 µM (inactive)	> 10 µM (inactive)	> 10 µM (inactive)	> 10 µM (inactive)	> 10 µM (inactive)	> 10 µM (inactive)	> 10 µM (inactive)	> 10 µM (inactive)	> 10 µM (inactive)	> 10 µM (inactive)	–	–	–	–	–
Cn1nc(-c2ccccc2)c(C(=O)/C=C/c2ccc(F)cc2)c(N2CCCC2)c1=O	5.36 µM (inactive)	19.2 µM (inactive)	0.644 µM (active)	7.82 µM (inactive)	–	–	6.4 µM (inactive)	–	–	–	16.9 µM (inactive)	24 µM (inactive)	13.2 µM (inactive)	> 10 µM (inactive)	12.2 µM (inactive)	13.9 µM (inactive)	21.4 µM (inactive)	16 µM (inactive)	–
O=C1CC(=O)NC(NN2C(=O)CSC2c2ccc(Cl)cc2)=N1 (stereo not given)	25.7 µM (inactive)	–	–	> 100 µM (inactive)	36.7 µM (inactive)	> 100 µM (inactive)	> 100 µM (inactive)	> 100 µM (inactive)	> 100 µM (inactive)	> 100 µM (inactive)	18.4 µM (inactive)	> 100 µM (inactive)	36.4 µM (inactive)	21.3 µM (inactive)	> 100 µM (inactive)	> 100 µM (inactive)	> 100 µM (inactive)	> 100 µM (inactive)	24.9 µM (inactive)
C=C[C@@H]1C(CO)=CCC2[C@H]1CCC1C(C)(C)C(=O)CC[C@]21C (stereo not given in full)	> 100 µM (inactive)	> 100 µM (inactive)	59.3 µM (inactive)	> 100 µM (inactive)	–	> 100 µM (inactive)	> 100 µM (inactive)	> 100 µM (inactive)	> 100 µM (inactive)	> 100 µM (inactive)	> 100 µM (inactive)	> 100 µM (inactive)	> 100 µM (inactive)	> 100 µM (inactive)	> 100 µM (inactive)	> 100 µM (inactive)	> 100 µM (inactive)	> 100 µM (inactive)	> 100 µM (inactive)
Cn1c2n/c(=N\c3ccc(Cl)cc3)[n+]3ccc4ccccc4c3c-2c([O-])n1-c1ccccc1	–	> 100 µM (inactive)	> 100 µM (inactive)	> 100 µM (inactive)	> 100 µM (inactive)	> 100 µM (inactive)	> 100 µM (inactive)	> 100 µM (inactive)	> 100 µM (inactive)	> 100 µM (inactive)	> 100 µM (inactive)	> 100 µM (inactive)	> 100 µM (inactive)	> 100 µM (inactive)	46.3 µM (inactive)	–	> 100 µM (inactive)	> 100 µM (inactive)	> 100 µM (inactive)
Oc1cn(-c2ccc(Cl)cc2)nc1-c1nnc(Nc2ccccc2)o1	–	23.9 µM (inactive)	–	–	12.4 µM (inactive)	8.39 µM (inactive)	17.3 µM (inactive)	88.7 µM (inactive)	18.9 µM (inactive)	20.2 µM (inactive)	16.1 µM (inactive)	18.5 µM (inactive)	17.5 µM (inactive)	14.3 µM (inactive)	32.3 µM (inactive)	–	15.2 µM (inactive)	17.7 µM (inactive)	17.7 µM (inactive)
Fc1cc(C2=Nn3c(CNc4ccc(Cl)cc4)nnc3S/C2=C\c2ccc(-c3ccc(Cl)cc3)o2)c(Cl)cc1Cl	67.1 µM (inactive)	7.52 µM (inactive)	> 100 µM (inactive)	11.9 µM (inactive)	10.2 µM (inactive)	26.5 µM (inactive)	38 µM (inactive)	18.7 µM (inactive)	22.3 µM (inactive)	22.6 µM (inactive)	33.3 µM (inactive)	17.5 µM (inactive)	18.6 µM (inactive)	11.8 µM (inactive)	23.6 µM (inactive)	–	17.7 µM (inactive)	67 µM (inactive)	21.8 µM (inactive)
Cn1c2ccccc2n2c(=O)c3cccnc3c(C#N)c12	–	> 100 µM (inactive)	–	–	> 100 µM (inactive)	4.42 µM (inactive)	14.7 µM (inactive)	> 100 µM (inactive)	> 100 µM (inactive)	–	25.5 µM (inactive)	> 100 µM (inactive)	> 100 µM (inactive)	–	> 100 µM (inactive)	> 100 µM (inactive)	–	> 100 µM (inactive)	76.2 µM (inactive)
Cn1c2c(c3ccccc31)CC(=S)N1CCCC(CC2O)C1 (stereo not given)	–	–	–	> 100 µM (inactive)	> 100 µM (inactive)	> 100 µM (inactive)	> 100 µM (inactive)	–	> 100 µM (inactive)	> 100 µM (inactive)	> 100 µM (inactive)	> 100 µM (inactive)	> 100 µM (inactive)	45.8 µM (inactive)	> 100 µM (inactive)	> 100 µM (inactive)	–	> 100 µM (inactive)	–
Cn1c2ccccc2n2c3ncccc3c(=O)cc12	–	16.3 µM (inactive)	–	78.3 µM (inactive)	96.8 µM (inactive)	44.3 µM (inactive)	31.3 µM (inactive)	> 100 µM (inactive)	45.1 µM (inactive)	–	44.7 µM (inactive)	74.6 µM (inactive)	40.4 µM (inactive)	26.3 µM (inactive)	36.2 µM (inactive)	54.5 µM (inactive)	28.9 µM (inactive)	> 100 µM (inactive)	32.1 µM (inactive)
Cc1oc2c(c1C)S(=O)(=O)C(C#N)=CN2	–	> 100 µM (inactive)	–	> 100 µM (inactive)	> 100 µM (inactive)	> 100 µM (inactive)	> 100 µM (inactive)	> 100 µM (inactive)	> 100 µM (inactive)	> 100 µM (inactive)	> 100 µM (inactive)	> 100 µM (inactive)	> 100 µM (inactive)	> 100 µM (inactive)	> 100 µM (inactive)	> 100 µM (inactive)	> 100 µM (inactive)	> 100 µM (inactive)	> 100 µM (inactive)
CN(C)C(=C1c2cc([N+](=O)[O-])ccc2-c2ccc([N+](=O)[O-])cc21)N(C)C	> 100 µM (inactive)	> 100 µM (inactive)	–	> 100 µM (inactive)	> 100 µM (inactive)	> 100 µM (inactive)	> 100 µM (inactive)	> 100 µM (inactive)	> 100 µM (inactive)	> 100 µM (inactive)	> 100 µM (inactive)	> 100 µM (inactive)	> 100 µM (inactive)	56.2 µM (inactive)	5.93 µM (inactive)	–	> 100 µM (inactive)	> 100 µM (inactive)	> 100 µM (inactive)
C/C=C1\CNC1C(=O)O (stereo not given)	> 100 µM (inactive)	> 100 µM (inactive)	> 100 µM (inactive)	> 100 µM (inactive)	–	–	–	> 100 µM (inactive)	> 100 µM (inactive)	> 100 µM (inactive)	> 100 µM (inactive)	> 100 µM (inactive)	–	> 100 µM (inactive)	> 100 µM (inactive)	> 100 µM (inactive)	> 100 µM (inactive)	> 100 µM (inactive)	> 100 µM (inactive)
COc1ccc(C2=NN(c3ccccc3)C(c3cc4cc(Br)ccc4nc3Cl)C2)cc1 (stereo not given)	24.2 µM (inactive)	11.9 µM (inactive)	> 25 µM (inactive)	14.1 µM (inactive)	–	> 25 µM (inactive)	16.7 µM (inactive)	> 25 µM (inactive)	9.51 µM (inactive)	> 25 µM (inactive)	> 25 µM (inactive)	–	–	> 25 µM (inactive)	22.8 µM (inactive)	> 25 µM (inactive)	15.2 µM (inactive)	> 25 µM (inactive)	18.8 µM (inactive)
O=C(Cc1ccccc1)NN1C(=O)/C(=C\c2ccc([N+](=O)[O-])cc2)S/C1=N\c1ccccc1	68.9 µM (inactive)	> 100 µM (inactive)	–	42.5 µM (inactive)	> 100 µM (inactive)	> 100 µM (inactive)	–	> 100 µM (inactive)	> 100 µM (inactive)	> 100 µM (inactive)	> 100 µM (inactive)	> 100 µM (inactive)	> 100 µM (inactive)	> 100 µM (inactive)	–	68.9 µM (inactive)	> 100 µM (inactive)	> 100 µM (inactive)	> 100 µM (inactive)
CSC[C@H](NC(=O)COc1cccc2cnccc12)C(=O)NC(Cc1ccccc1)C(O)C(=O)N1CSC[C@H]1C(=O)NC(C)(C)C (stereo not given in full)	26.5 µM (inactive)	–	33.8 µM (inactive)	32.5 µM (inactive)	> 100 µM (inactive)	> 100 µM (inactive)	> 100 µM (inactive)	> 100 µM (inactive)	60.4 µM (inactive)	> 100 µM (inactive)	84.7 µM (inactive)	> 100 µM (inactive)	95.3 µM (inactive)	86.3 µM (inactive)	–	–	> 100 µM (inactive)	78.2 µM (inactive)	> 100 µM (inactive)
COC1(c2ccc(Cl)cc2)SC=C(C)n2c1noc2=O (stereo not given)	> 100 µM (inactive)	> 100 µM (inactive)	> 100 µM (inactive)	> 100 µM (inactive)	–	–	89.5 µM (inactive)	> 100 µM (inactive)	> 100 µM (inactive)	–	> 100 µM (inactive)	–	> 100 µM (inactive)	> 100 µM (inactive)	> 100 µM (inactive)	> 100 µM (inactive)	> 100 µM (inactive)	> 100 µM (inactive)	–
